ChEMBL document CHEMBL5352401, “Novel cudraisoflavone J derivatives as potent neuroprotective agents for the treatment of Parkinson's disease via the activation of Nrf2/HO-1 signaling” (Eur J Med Chem, 2022)
Calls of active or inactive are those of the source. The calls are words filed in the database; no cut-off is given here.

How the values were obtained:
PC-12 [1] = assay: Neuroprotective activity against 6-OHDA-induced cytotoxicity in rat PC-12 cells at 10 to 30 uM for 4 hrs followed by exposure to 6-OHDA measured after 24 hrs by MTT assay; format: functional, cell-based; conditions: dose 10-30 µM, time 28.0 hrs
PC-12 [2] = assay: Cytotoxicity in rat PC-12 cells assessed as cell viability measured upto 30 uM for 24 hrs by MTT assay; format: functional, cell-based
[3] = Neurotoxicity in rotenone induced at rat PC-12 cells assessed as cell viability at 30 uM pretreated for 4 hrs followed by rotenone addition measured after 24 hrs by MTT assay (reference value: 53.4 +/- 2.6%); format: toxicity, cell-based; conditions: time 28 hrs, read-out: Activity
PC-12 [4] = assay: Neuroprotective activity against 6-OHDA-induced cytotoxicity in rat PC-12 cells for 4 hrs followed by exposure to 6-OHDA measured after 24 hrs by MTT assay; format: functional, cell-based; conditions: dose 0.1-30 µM, time 28.0 hrs
PC-12 [5] = assay: Cytotoxicity in rat PC-12 cells assessed as cell viability measured at 30 uM for 24 hrs by MTT assay relative to control; format: functional; conditions: read-out: Activity
PC-12 [6] = assay: Cytotoxicity in rat PC-12 cells assessed as cell viability incubated for 24 hrs by MTT assay; format: functional, cell-based; conditions: PC-12, 24 h
[7] = Neurotoxicity in rotenone induced at rat PC-12 cells assessed as cell viability pretreated with compound for 4 hrs followed by rotenone addition measured after 24 hrs by MTT assay; format: toxicity, cell-based

What does the source list for COc1cccc(-c2coc3cc(O)c4c(c3c2=O)OC(C)(C)C(O)C4)c1 (configuration not stated)?
Activity (PC-12 [1]): Active; Activity (PC-12 [2]): inactive; viability at 30 µM [3]: 80.3%; Activity (PC-12 [4]): Dose-Dependent Effect; viability at 30 µM (PC-12 [5]): 86%; IC50 (PC-12 [6]): 8 µM; IC50 [7]: 5.5 µM
